In US20240376093A1, “SULFOXIMINE COMPOUND AND USE THEREOF” (MEDSHINE DISCOVERY INC., priority 2021, published 2024):
Where a name gives a salt, the structure may show the parent alone. Read-outs that look alike come from different tables or passages of the source.

Experiments:
[1] = target: TYK2 protein (His-TVMV-TYK2 JH2 (575-869)) (Homo sapiens (Human), UniProt P29597); test: Tyk2 JH2 enzymatic activity assay (HTRF, fluorescein-labeled kinase tracer); type: binding; conditions: 90 minutes at room temperature
Sequence of TYK2 protein (His-TVMV-TYK2 JH2 (575-869)) (P29597 575-869, species assumed): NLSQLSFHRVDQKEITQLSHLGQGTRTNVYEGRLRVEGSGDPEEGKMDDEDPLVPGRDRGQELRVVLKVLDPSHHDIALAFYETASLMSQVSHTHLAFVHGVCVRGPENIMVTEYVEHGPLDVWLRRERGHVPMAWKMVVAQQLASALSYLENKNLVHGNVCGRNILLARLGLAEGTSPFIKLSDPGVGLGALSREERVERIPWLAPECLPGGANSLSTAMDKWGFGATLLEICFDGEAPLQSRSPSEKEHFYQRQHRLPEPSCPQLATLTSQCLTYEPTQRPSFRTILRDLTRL
Description: The assay system was incubated at room temperature for 90 minutes. The resulting HTRF (homogeneous time-resolved fluorescence) signal, i.e., the ratio of the fluorescence intensity of the fluorescein acceptor (520 nm) and the terbium donor (495 nm) at the emission wavelength, was then measured on an Envision plate reader, and based on this, the IC50 value was calculated.

[2] = tested on: IFNα-stimulated phosphorylated STAT1; test: Assay of IFNα-stimulated phosphorylated STAT1 in hPBMC (flow cytometry, CD4+ T cells); type: cell-based, Human; conditions: IFN-α 1000 U/ml, pSTAT1 in CD4+ T cells
Description: Human peripheral blood mononuclear cells (hPBMC) were plated at a cell density of 1×10^5 cells/well and placed in a 37° C. incubator for 90 minutes. Different concentrations of compounds were then added to the cells, wherein the concentration of each compound started from […] and was serially diluted 5-fold to a total of 8 concentrations. Compounds and cells were incubated at 37° C. for 30 minutes. IFN-α (1000 U/ml) was used to stimulate hPBMC, and then flow cytometry was used to detect the level of phosphorylated STAT1 in CD4+ T cells to evaluate the inhibitory activity of compounds on the IFN-α pathway.

[3] = Pharmacokinetics of the compound in Balb/c mice; type: in vivo; conditions: mouse, plasma, male Balb/c mice, fasted; for AUC: read-out: AUC (exposure)
Description: • Purpose of assay: To assay the pharmacokinetics of the compound in Balb/c mice • Assay materials: Male Balb/c mice, fasted
The pharmacokinetic profiles of compound 1 in rodents after intravenous injection and oral administration were assayed using standard protocols.
Acclimatization/quarantine of Balb/c mice was performed for at least 3 days after arrival at the facility. Upon completion of the acclimatization/quarantine, a veterinarian or designee examined the health status of the Balb/c mice to evaluate whether the animals were suitable for the assay study. All Balb/c mice were fasted overnight before administration and resumed feeding 4 hours after administration. In the assay, the candidate compound was formulated into a homogeneous solution and given to Balb/c mice via a single intravenous injection and oral administration. The intravenous vehicle was a clear solution of 80% polyethylene glycol 400/20% water and the oral vehicle was a homogeneous suspension of ethanol/vitamin E polyethylene glycol succinate/polyethylene glycol 300 (5/5/90). The animals were weighed before administration and the administered volume was calculated based on body weight. Whole blood samples were collected by means of jugular vein puncture within 24 hours. All blood samples were immediately transferred to labeled commercial centrifuge tubes containing K2-EDTA. After blood samples were collected, the blood samples were centrifuged at 3200 g for 10 minutes at 4° C. The supernatant plasma was aspirated, quickly placed on dry ice, and then stored at −60° C. or lower for LC-MS/MS analysis. The data of blood drug concentration-time were analyzed using the WinNonlin software package (Version 6.3 and above) using a non-compartmental model. Pharmacokinetic parameters were calculated, including (if data permitted), but not limited to, peak concentration (Cmax), time to peak (Tmax), elimination half-life (T 1/2), area under plasma concentration-time curve (AUC), mean retention time (MRT), bioavailability, etc.

For `[2H]C([2H])([2H])CC(=O)c1cnc(NC(=O)NC2CC2)cc1Nc1cccc(-c2cnc(N=S(C)(C)=O)cn2)c1OC` [Compound 23], the IC50 [1] was 0.13 nM.

`[2H]C([2H])([2H])CC(=O)c1cnc(Nc2ccccn2)cc1Nc1cccc(-c2cnc(N=S(C)(C)=O)cn2)c1OC` [Compound 10] showed an IC50 [1] of 0.06 nM.

For `[2H]C([2H])([2H])CC(=O)c1cnc(Nc2cccc(C#N)n2)cc1Nc1cccc(-c2cnc(N=S(C)(C)=O)cn2)c1OC` [Compound 12], the IC50 [1] was 0.05 nM.

For `[2H]C([2H])([2H])CC(=O)c1cnc(Nc2cc3cc[nH]c3cn2)cc1Nc1cccc(-c2cnc(N=S(C)(C)=O)cn2)c1OC` [Compound 29], the IC50 [1] was 0.11 nM.

In the case of `[2H]C([2H])([2H])CC(=O)c1cnc(NC(=O)C2CC2)cc1Nc1cccc(-c2cnc(N=S3(=O)CCC3)cn2)c1OC` [Compound 6], the IC50 [1] is reported as 0.18 nM.

`[2H]C([2H])([2H])CC(=O)c1cnc(NC(=O)C2CC2)cc1Nc1cc(F)cc(-c2cnc(N=S(C)(C)=O)cn2)c1OC` [Compound 15] showed an IC50 [1] of 0.08 nM.

In the case of `[2H]C([2H])([2H])CC(=O)c1cnc(NC(=O)C2CC2)cc1Nc1nccc(-c2cnc(N=S(C)(C)=O)cn2)c1OC` [Compound 16], the IC50 [1] is reported as 0.08 nM.

`COCC(=O)c1cnc(NC(=O)C2CC2)cc1Nc1cccc(-c2cnc(N=S(C)(C)=O)cn2)c1OC` [Compound 17] showed an IC50 [1] of 0.29 nM.

In the case of `[2H]C([2H])([2H])CC(=O)c1cnc(NC(=O)C2CC2)cc1Nc1cccc(-c2cnc(N=S(=O)(CC)CC)cn2)c1OC` [Compound 27], the IC50 [1] is reported as 0.09 nM.

Work on `[2H]C([2H])([2H])CC(=O)c1cnc(NC(=O)C2CC2)cc1Nc1cccc(-c2cnc(N=S3(=O)CCCC3)cn2)c1OC` [Compound 7] yielded an IC50 [1] of 0.09 nM.

With `[2H]C([2H])([2H])CC(=O)c1cnc(NC(=O)C2CC3CCC2C3)cc1Nc1cccc(-c2cnc(N=S(C)(C)=O)cn2)c1OC` (centres unmarked) [Compound 33] the IC50 [1] was 0.3 nM.

For `[2H]C([2H])([2H])CC(=O)c1cnc(NC(=O)N2CCC2)cc1Nc1cccc(-c2cnc(N=S(C)(C)=O)cn2)c1OC` [Compound 20], the IC50 [1] was 0.19 nM.

Compound `[2H]C([2H])([2H])CC(=O)c1cnc(NC(=O)C23CC(C2)C3)cc1Nc1cccc(-c2cnc(N=S(C)(C)=O)cn2)c1OC` [Compound 30] has an IC50 [1] of 0.56 nM.

Compound `[2H]C([2H])([2H])CC(=O)c1cnc(NC(=O)C2CC2)cc1Nc1cccc(-c2cnc(N=S3(=O)CCN(C)CC3)cn2)c1OC` [Compound 8] has an IC50 [1] of 0.15 nM and an IC50 ([2]; Homo sapiens, CD4+ T) of 0.4 nM.

`[2H]C([2H])([2H])NC(=O)c1cnc(NC(=O)C2CC2)cc1Nc1cccc(-c2cnc(N=S(C)(C)=O)cn2)c1OC` [Compound 3] showed an IC50 [1] of 0.03 nM and an IC50 ([2]; Homo sapiens, CD4+ T) of 2.1 nM.

With `[2H]C([2H])([2H])NC(=O)c1nnc(NC(=O)C2CC2)cc1Nc1cccc(-c2cnc(N=S(C)(C)=O)cn2)c1OC` [Compound 2] the IC50 [1] was 0.06 nM and the IC50 ([2]; Homo sapiens, CD4+ T) was 0.2 nM.

`CCC(=O)c1cnc(NC(=O)C2CC2)cc1Nc1cccc(-c2cnc(N=S(C)(C)=O)cn2)c1OC` [Compound 4] showed an IC50 [1] of 0.07 nM and an IC50 ([2]; Homo sapiens, CD4+ T) of 0.6 nM.

For `[2H]C([2H])([2H])CC(=O)c1cnc(Nc2cncc(C)n2)cc1Nc1cccc(-c2cnc(N=S(C)(C)=O)cn2)c1OC` [Compound 13], the IC50 [1] was 0.12 nM.

For `[2H]C([2H])([2H])CC(=O)c1cnc(NC(=O)c2cn[nH]c2)cc1Nc1cccc(-c2cnc(N=S(C)(C)=O)cn2)c1OC` [Compound 28], the IC50 [1] was 0.17 nM.

`[2H]C([2H])([2H])CC(=O)c1cnc(NC(=O)C2CC2)cc1Nc1cccc(-c2cnc(N=S(C)(C)=O)cn2)c1OC` [Compound 1] showed an IC50 [2] of 1.1 nM, an AUC ([3]; IV (1 mg/kg)) of 9.38 µM·h and a clearance ([3]; IV (1 mg/kg), read-out: Cl (clearance rate)) of 3.39 mL/min/kg. For the same compound, the half-life ([3]; IV (1 mg/kg), read-out: T1/2 (half-life) (converted)) was 1.61 h, the Vd ([3]; IV (1 mg/kg), read-out: Vd (volume of distribution)) was 0.45 L/kg and the AUC ([3]; PO (10 mg/kg)) was 47.2 µM·h. For the same compound, the Cmax ([3]; PO (10 mg/kg), read-out: Cmax (maximum concentration)) was 13.4 µM, the bioavailability ([3]; PO (10 mg/kg), read-out: F (bioavailability)) was 51.4% and the Tmax ([3]; PO (10 mg/kg), read-out: Tmax (time to peak concentration)) was 0.75 h.

Work on `[2H]C([2H])([2H])CC(=O)c1cnc(NC(=O)C2CC2)cc1Nc1cccc(-c2cnc(N=S3(=O)CCOCC3)cn2)c1OC` [Compound 5] yielded an IC50 [1] of 0.07 nM.

With `[2H]C([2H])([2H])CC(=O)c1cnc(NC(=O)C2C3COCC32)cc1Nc1cccc(-c2cnc(N=S(C)(C)=O)cn2)c1OC` (centres unmarked) [Compound 31] the IC50 [1] was 0.34 nM.

For `[2H]C([2H])([2H])CC(=O)c1cnc(NC(=O)C2CC2)cc1Nc1cccc(-c2cnc(N=S(C)(C)=O)cn2)c1OC` [Compound 9], the IC50 [1] was 0.07 nM and the IC50 [2] was 0.5 nM.

`[2H]C([2H])([2H])CC(=O)c1cnc(Nc2ccc(F)cn2)cc1Nc1cccc(-c2cnc(N=S(C)(C)=O)cn2)c1OC` [Compound 11] gave an IC50 [1] of 0.11 nM.

In the case of `COc1c(Nc2cc(NC(=O)C3CC3)ncc2C(C)=O)cccc1-c1cnc(N=S(C)(C)=O)cn1` [Compound 18], the IC50 [1] is reported as 0.09 nM.

With `[2H]C([2H])([2H])CC(=O)c1cnc(NC(=O)C2CCC2)cc1Nc1cccc(-c2cnc(N=S(C)(C)=O)cn2)c1OC` [Compound 14] the IC50 [1] was 0.25 nM.

With `COc1c(Nc2cc(NC(=O)C3CC3)ncc2C(=O)C2CC2)cccc1-c1cnc(N=S(C)(C)=O)cn1` [Compound 19] the IC50 [1] was 0.12 nM.

Compound `[2H]C([2H])([2H])CC(=O)c1cnc(Nc2ccn(C)c(=O)c2)cc1Nc1cccc(-c2cnc(N=S(C)(C)=O)cn2)c1OC` [Compound 35] has an IC50 [1] of 0.76 nM.

With `[2H]C([2H])([2H])CC(=O)c1cnc(NC(=O)C2CC2)cc1Nc1cc(OC)cc(-c2cnc(N=S(C)(C)=O)cn2)c1OC` [Compound 22 hydrochloride] the IC50 [1] was 0.14 nM.

For `[2H]C([2H])([2H])CC(=O)c1cnc(NC(=O)C2CC2)cc1Nc1cc(C)cc(-c2cnc(N=S(C)(C)=O)cn2)c1OC` [Compound 21], the IC50 [1] was 0.13 nM.

With `[2H]C([2H])([2H])CC(=O)c1cnc(NC(=O)C2CC3(CCC3)C2)cc1Nc1cccc(-c2cnc(N=S(C)(C)=O)cn2)c1OC` [Compound 32] the IC50 [1] was 0.31 nM.
